Results from PubChem BioAssay (NCI).
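A five-concentration, 48-hour dose response in 96-well plates underlies each endpoint, interpolated linearly between surrounding concentrations. GI50 is the concentration that inhibits growth by half. TGI is the concentration that stops growth completely.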

How the values were obtained:
Assay in all cases: inhibition of tumour cell growth, NCI panel, 48 h; in the data active = GI50 below about 0.43 µM; inactive = the rest
[1] = system: OVCAR-5 ovarian
[2] = system: A498 renal
[3] = system: UO-31 renal
[4] = system: RPMI-8226 leukemia
[5] = system: MOLT-4 leukemia
[6] = system: IGROV1 ovarian
[7] = system: CCRF-CEM leukemia
[8] = system: SK-OV-3 ovarian
[9] = system: SK-MEL-5 melanoma
[10] = system: OVCAR-8 ovarian
[11] = system: OVCAR-4 ovarian
[12] = system: A549 NSCLC
[13] = system: SN12C renal
[14] = system: ACHN renal
[15] = system: UACC-62 melanoma
[16] = system: SNB-75 CNS
[17] = system: SNB-19 CNS
[18] = system: KM12 colon
[19] = system: COLO 205 colon
[20] = system: SK-MEL-2 melanoma
[21] = system: NCI-H226 lung
[22] = system: MDA-N
[23] = system: M14 melanoma
[24] = system: HCT-116 colon
[25] = system: MDA-MB-231 breast
[26] = system: MDA-MB-435
[27] = system: NCI-H23 lung
[28] = system: U251 CNS
[29] = system: MCF7 breast
[30] = system: HOP-92 NSCLC
[31] = system: UACC-257 melanoma
[32] = system: OVCAR-3 ovarian
[33] = system: HT29 colon
[34] = system: SK-MEL-28 melanoma
[35] = system: K-562 leukemia
[36] = system: SW-620 colon
[37] = system: SF-268 CNS
[38] = system: DU-145 prostate
[39] = system: SF-295 CNS
[40] = system: HCT-15 colon
[41] = system: TK-10 renal
[42] = system: T-47D breast
[43] = system: HOP-62 NSCLC
[44] = system: RXF 393 renal
[45] = system: 786-0 renal
[46] = system: HCC-2998 colon
[47] = system: EKVX NSCLC
[48] = system: NCI-H460 lung
[49] = system: NCI/ADR-RES ovarian
[50] = system: SF-539 CNS
[51] = system: HS 578T breast
[52] = system: MALME-3M melanoma
[53] = system: NCI-H522 lung
[54] = system: HL-60(TB) leukemia
[55] = system: LOX IMVI melanoma
[56] = system: CAKI-1 renal
[57] = system: SR leukemia
[58] = system: PC-3 prostate
[59] = system: BT-549 breast

COc1ccc(/C=C2/SC(=Nc3ccccc3)N(NC(=O)Cc3ccccc3)C2=O)c(OC)c1
67.4 µM: TGI [30]
> 100 µM: TGI [1] | TGI [2] | TGI [3] | TGI [4] | TGI [5] | TGI [6] | TGI [7] | TGI [8] | TGI [9] | TGI [10] | TGI [11] | TGI [12] | TGI [13] | TGI [14] | TGI [15] | TGI [16] | TGI [17] | TGI [18] | TGI [19] | TGI [20] | TGI [21] | TGI [22] | TGI [23] | TGI [24] | TGI [25] | TGI [26] | TGI [27] | TGI [28] | TGI [29] | TGI [31] | TGI [32] | TGI [33] | TGI [34] | TGI [35] | TGI [36] | TGI [37] | TGI [38] | TGI [39] | TGI [40] | TGI [41] | TGI [42] | TGI [43] | TGI [44] | TGI [45] | TGI [46] | TGI [47] | TGI [48] | TGI [49] | TGI [50] | TGI [51]

CNC(=O)N1CN(c2ccccc2)C2(CCN(Cc3ccccc3)CC2)C1=O
11 µM: TGI [42]
52.3 µM: TGI [57]
39.8 µM: TGI [46]
51.3 µM: TGI [49]
46.8 µM: TGI [5]
64.1 µM: TGI [1]
> 100 µM: TGI [3] | TGI [4] | TGI [6] | TGI [7] | TGI [8] | TGI [9] | TGI [10] | TGI [12] | TGI [13] | TGI [14] | TGI [52] | TGI [15] | TGI [53] | TGI [16] | TGI [17] | TGI [54] | TGI [18] | TGI [19] | TGI [21] | TGI [22] | TGI [23] | TGI [24] | TGI [25] | TGI [27] | TGI [28] | TGI [29] | TGI [55] | TGI [31] | TGI [32] | TGI [33] | TGI [34] | TGI [35] | TGI [36] | TGI [56] | TGI [37] | TGI [38] | TGI [39] | TGI [40] | TGI [41] | TGI [58] | TGI [43] | TGI [44] | TGI [45] | TGI [47] | TGI [50]

COc1ccc(C2CC(c3ccc(OC)cc3O)=NN2c2ccc(S(N)(=O)=O)cc2)cc1 (stereo not drawn)
80.2 µM: TGI [2]
85.6 µM: TGI [42]
32.8 µM: TGI [30]
85.9 µM: TGI [20]
> 100 µM: TGI [1] | TGI [3] | TGI [4] | TGI [6] | TGI [7] | TGI [8] | TGI [9] | TGI [10] | TGI [11] | TGI [12] | TGI [13] | TGI [14] | TGI [52] | TGI [15] | TGI [53] | TGI [16] | TGI [17] | TGI [18] | TGI [21] | TGI [25] | TGI [26] | TGI [27] | TGI [28] | TGI [29] | TGI [55] | TGI [31] | TGI [32] | TGI [33] | TGI [34] | TGI [35] | TGI [36] | TGI [37] | TGI [38] | TGI [39] | TGI [40] | TGI [41] | TGI [58] | TGI [43] | TGI [44] | TGI [45] | TGI [46] | TGI [47] | TGI [49] | TGI [50]
57.2 µM: TGI [59]
98.9 µM: TGI [51]
39.2 µM: TGI [48]
inactive: GI50 [1] 79.9 µM | GI50 [2] 13.1 µM | GI50 [3] 2.99 µM | GI50 [4] 4.67 µM | GI50 [5] 2.88 µM | GI50 [6] 6.34 µM | GI50 [7] 16.1 µM | GI50 [8] 26.1 µM | GI50 [9] 14.9 µM | GI50 [10] 24.1 µM | GI50 [11] 30.8 µM | GI50 [12] 6.36 µM | GI50 [13] 16.7 µM | GI50 [14] 5.86 µM | GI50 [52] 20.2 µM | GI50 [15] 8.76 µM | GI50 [53] 15.5 µM | GI50 [16] 20.8 µM | GI50 [17] 27.3 µM | GI50 [54] 11.9 µM | GI50 [18] 5.14 µM | GI50 [19] 5.98 µM | GI50 [20] 17.1 µM | GI50 [21] 11.7 µM | GI50 [23] 4.54 µM | GI50 [24] 4.47 µM | GI50 [25] 15.3 µM | GI50 [26] 6.56 µM | GI50 [27] 20.5 µM | GI50 [28] 6.42 µM | GI50 [29] 4.11 µM | GI50 [55] 14.1 µM | GI50 [30] 3.27 µM | GI50 [31] 15.9 µM | GI50 [32] 12.2 µM | GI50 [33] 11.1 µM | GI50 [34] 15 µM | GI50 [35] 5.71 µM | GI50 [59] 13.5 µM | GI50 [36] 16 µM | GI50 [56] 6.74 µM | GI50 [37] 34.1 µM | GI50 [38] 44.5 µM | GI50 [39] 29.4 µM | GI50 [40] 5.98 µM | GI50 [41] 7.18 µM | GI50 [57] 1.47 µM | GI50 [42] 4.42 µM | GI50 [58] 4.29 µM | GI50 [43] 33.1 µM | GI50 [44] 25.6 µM | GI50 [45] 18.4 µM | GI50 [46] 16.5 µM | GI50 [47] 4.48 µM | GI50 [48] 6.74 µM | GI50 [49] 8.09 µM | GI50 [50] 30.2 µM | GI50 [51] 8.22 µM
25.9 µM: TGI [23]
91.9 µM: TGI [56]
36.6 µM: TGI [5]
9.61 µM: TGI [57]
69.3 µM: TGI [24]
20.1 µM: TGI [19]
47.9 µM: TGI [54]
